Experimental data reported in patent US11795460B2, “Compositions and methods for TTR gene editing and treating ATTR amyloidosis” (Intellia Therapeutics, Inc., priority 2017, dated 2023).

Test system: TTR
Assay: TTR editing in primary cyno hepatocytes electroporated with Spy Cas9 protein and dgRNAs (Tables 10, 11)
Assay type: cell-based, cynomolgus monkey
Details: Table 10; primary cyno hepatocytes electroporated with Spy Cas9 protein (RNP) and dgRNAs
How it was run: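 Editing efficiency is the fraction of NGS reads carrying insertions, deletions or substitutions at the TTR target, measured on MiSeq amplicons from DNA harvested 24, 48 or 72 h post-delivery. Cas9–dgRNA ribonucleoprotein was nucleofected (P3 buffer, EX-147) into primary human or cyno hepatocytes.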

| Sequence | Avg % Deletion [%] | Avg % Edit [%] | Avg % Insert [%] |
| --- | --- | --- | --- |
| AAAGGCUGCUGAUGACACCU (tested as dual guide RNA, chemistry not given here) [CR003353] | 0.08 | 4.75 | 4.67 |
| AAAGUUCUAGAUGCUGUCCG (tested as dual guide RNA, chemistry not given here) [CR003346] | 0.09 | 1.91 | 1.82 |
| AAAUAGACACCAAAUCUUAC (tested as dual guide RNA, chemistry not given here) [CR003366] | 0.90 | 18.52 | 17.62 |
| AAGUGCCUUCCAGUAAGAUU (tested as dual guide RNA, chemistry not given here) [CR003368] | 0.26 | 18.56 | 18.30 |
| AAUAGGAGUAGGGGCUCAGC (tested as dual guide RNA, chemistry not given here) [CR003384] | 1.25 | 3.75 | 2.50 |
| ACACAAAUACCAGUCCAGCA (tested as dual guide RNA, chemistry not given here) [CR003339] | 4.02 | 8.95 | 4.93 |
| ACCUCUGCAUGCUCAUGGAA (tested as dual guide RNA, chemistry not given here) [CR003371] | 0.14 | 1.83 | 1.69 |
| ACGUGUCUUCUCUACACCCA (tested as dual guide RNA, chemistry not given here) [CR005302] | 0.08 | 1.34 | 1.26 |
| ACUGAGGAGGAAUUUGUAGA (tested as dual guide RNA, chemistry not given here) [CR003363] | 2.39 | 15.64 | 13.24 |
| AGUCCCUCAUUCCUUGGGAU (tested as dual guide RNA, chemistry not given here) [CR003392] | 0.38 | 7.02 | 6.63 |
| AGUGAGUCUGGAGAGCUGCA (tested as dual guide RNA, chemistry not given here) [CR003359] | 5.51 | 46.17 | 40.66 |
| AUACCAGUCCAGCAAGGCAG (tested as dual guide RNA, chemistry not given here) [CR003338] | 0.05 | 44.94 | 44.89 |
| AUAGGAGUAGGGGCUCAGCA (tested as dual guide RNA, chemistry not given here) [CR003383] | 4.55 | 8.86 | 4.31 |
| AUGCAGCUCUCCAGACUCAC (tested as dual guide RNA, chemistry not given here) [CR003358] | 1.46 | 20.47 | 19.01 |
| AUUGGUGACGACAGCCGUGG (tested as dual guide RNA, chemistry not given here) [CR003389] | 0.78 | 18.83 | 18.05 |
| CAUUGAUGGCAGGACUGCCU (tested as dual guide RNA, chemistry not given here) [CR003347] | 0.25 | 72.41 | 72.15 |
| CCAGUCCAGCAAGGCAGAGG (tested as dual guide RNA, chemistry not given here) [CR003337] | 0.84 | 24.94 | 24.10 |
| CCCCUACUCCUAUUCCACCA (tested as dual guide RNA, chemistry not given here) [CR003385] | 4.12 | 30.96 | 26.84 |
| CCGUGGUGGAAUAGGAGUAG (tested as dual guide RNA, chemistry not given here) [CR003386] | 2.03 | 5.54 | 3.51 |
| CCUCCUCUGCCUUGCUGGAC (tested as dual guide RNA, chemistry not given here) [CR003336] | 0.07 | 8.18 | 8.10 |

| Sequence | Avg % Deletion [%] | Avg % Edit [%] | Avg % Insert [%] |
| --- | --- | --- | --- |
| CCUCUGCAUGCUCAUGGAAU (tested as dual guide RNA, chemistry not given here) [CR003370] | 0.12 | 2.52 | 2.40 |
| CUCUGCAUGCUCAUGGAAUG (tested as dual guide RNA, chemistry not given here) [CR003369] | 0.25 | 1.53 | 1.28 |
| CUGAGGAGGAAUUUGUAGAA (tested as dual guide RNA, chemistry not given here) [CR003364] | 5.35 | 19.62 | 14.27 |
| CUGGUAUUUGUGUCUGAGGC (tested as dual guide RNA, chemistry not given here) [CR003341] | 0.77 | 8.43 | 7.66 |
| GAAAGGCUGCUGAUGACACC (tested as dual guide RNA, chemistry not given here) [CR003352] | 0.09 | 1.25 | 1.16 |
| GACGACAGCCGUGGUGGAAU (tested as dual guide RNA, chemistry not given here) [CR003388] | 0.22 | 6.81 | 6.59 |
| GCAUGGGCUCACAACUGAGG (tested as dual guide RNA, chemistry not given here) [CR003362] | 0.22 | 4.59 | 4.36 |
| GCCGUGGUGGAAUAGGAGUA (tested as dual guide RNA, chemistry not given here) [CR003387] | 0.17 | 4.72 | 4.55 |
| GCUGCAUGGGCUCACAACUG (tested as dual guide RNA, chemistry not given here) [CR003361] | 0.08 | 4.53 | 4.46 |
| GGAGUAGGGGCUCAGCAGGG (tested as dual guide RNA, chemistry not given here) [CR003382] | 2.33 | 10.86 | 8.54 |
| GGCUGUCGUCACCAAUCCCA (tested as dual guide RNA, chemistry not given here) [CR003391] | 0.71 | 36.44 | 35.73 |
| GGGAUUGGUGACGACAGCCG (tested as dual guide RNA, chemistry not given here) [CR003390] | 0.39 | 16.87 | 16.49 |
| GUCACAGAAACACUCACCGU (tested as dual guide RNA, chemistry not given here) [CR005301] | 0.42 | 46.76 | 46.34 |
| GUGAGUCUGGAGAGCUGCAU (tested as dual guide RNA, chemistry not given here) [CR003360] | 0.42 | 29.47 | 29.05 |
| UACUCACCUCUGCAUGCUCA (tested as dual guide RNA, chemistry not given here) [CR003372] | 0.32 | 2.15 | 1.83 |
| UCUAGAACUUUGACCAUCAG (tested as dual guide RNA, chemistry not given here) [CR003345] | 22.19 | 52.92 | 30.74 |
| UGAAUCCAAGUGUCCUCUGA (tested as dual guide RNA, chemistry not given here) [CR005303] | 0.56 | 59.28 | 58.72 |
| UGGACUGGUAUUUGUGUCUG (tested as dual guide RNA, chemistry not given here) [CR003340] | 4.80 | 12.53 | 7.72 |
| UGUAGAAGGGAUAUACAAAG (tested as dual guide RNA, chemistry not given here) [CR003365] | 0.97 | 10.31 | 9.33 |
| UUUGACCAUCAGAGGACACU (tested as dual guide RNA, chemistry not given here) [CR003344] | 1.91 | 35.72 | 33.81 |
